{"source": "PubChem BioAssay AID2060623", "about": "(Molecular Pharmacology Branch, DTP, NCI, 2025);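 also: spheroids exposed to compounds for seven days before readout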;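 as to viability, T/C: percent of DMSO vehicle control luminescence as 100% viability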", "tested_on": "227483-062-R1-J1-PDC complex spheroids with HUVEC/MSC, viability", "assay": "Anticancer human tumor 227483-062-R1-J1-PDC patient-derived pancreatic carcinoma cell line growth inhibition [CLK]", "conditions": "for IC50: curve of first compound; for viability, T/C: stronger effect = lower value", "in_short": "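Patient-derived tumor cells grown as complex spheroids with HUVEC endothelial cells and mesenchymal stem cells, treated with drug combinations. Concentrations descend in half-log steps from near clinical Cmax, or from 10 microM if Cmax unknown.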", "data": [{"smiles": "NC(=O)C(=Cn1cnc(-c2cc(C(F)(F)F)cc(C(F)(F)F)c2)n1)c1cncnc1", "note": "+ CN1CCN(c2cc(C(=O)Nc3cc4cc(-c5cnn(C)c5)ccc4cn3)ccn2)CC1", "values": [{"measurement": "IC50", "setting": "second compound 0.0316 µM", "result": 387, "unit": "nM"}, {"measurement": "IC50", "setting": "second compound 0.1 µM", "result": 62.1, "unit": "nM"}, {"measurement": "IC50", "setting": "second compound 0.316 µM", "result": "< 9.49", "unit": "nM"}, {"measurement": "IC50", "setting": "second compound 1 µM", "result": "< 9.49", "unit": "nM"}, {"measurement": "IC50", "setting": "second compound 3.16 µM", "result": "< 9.49", "unit": "nM"}, {"measurement": "IC50", "setting": "second compound 10 µM", "result": "< 9.49", "unit": "nM"}, {"measurement": "viability, T/C", "setting": "second compound 0.0316 µM, first compound 0.00949 µM", "result": 83.4, "unit": "%"}, {"measurement": "viability, T/C", "setting": "second compound 0.0316 µM, first compound 0.03 µM", "result": 105, "unit": "%"}, {"measurement": "viability, T/C", "setting": "second compound 0.0316 µM, first compound 0.0949 µM", "result": 78.6, "unit": "%"}, {"measurement": "viability, T/C", "setting": "second compound 0.0316 µM, first compound 0.3 µM", "result": 60.6, "unit": "%"}, {"measurement": "viability, T/C", "setting": "second compound 0.0316 µM, first compound 0.949 µM", "result": 18.8, "unit": "%"}, {"measurement": "viability, T/C", "setting": "second compound 0.0316 µM, first compound 3 µM", "result": 5.44, "unit": "%"}, {"measurement": "viability, T/C", "setting": "second compound 0.1 µM, first compound 0.00949 µM", "result": 69.7, "unit": "%"}, {"measurement": "viability, T/C", "setting": "second compound 0.1 µM, first compound 0.03 µM", "result": 76.6, "unit": "%"}, {"measurement": "viability, T/C", "setting": "second compound 0.1 µM, first compound 0.0949 µM", "result": 35.9, "unit": "%"}, {"measurement": "viability, T/C", "setting": "second compound 0.1 µM, first compound 0.3 µM", "result": 13.9, "unit": "%"}, {"measurement": "viability, T/C", "setting": "second compound 0.1 µM, first compound 0.949 µM", "result": 3.19, "unit": "%"}, {"measurement": "viability, T/C", "setting": "second compound 0.1 µM, first compound 3 µM", "result": 1.66, "unit": "%"}, {"measurement": "viability, T/C", "setting": "second compound 0.316 µM, first compound 0.00949 µM", "result": 3.14, "unit": "%"}, {"measurement": "viability, T/C", "setting": "second compound 0.316 µM, first compound 0.03 µM", "result": 3.15, "unit": "%"}, {"measurement": "viability, T/C", "setting": "second compound 0.316 µM, first compound 0.0949 µM", "result": 1.63, "unit": "%"}, {"measurement": "viability, T/C", "setting": "second compound 0.316 µM, first compound 0.3 µM", "result": 1.68, "unit": "%"}, {"measurement": "viability, T/C", "setting": "second compound 0.316 µM, first compound 0.949 µM", "result": 1.4, "unit": "%"}, {"measurement": "viability, T/C", "setting": "second compound 0.316 µM, first compound 3 µM", "result": 1.39, "unit": "%"}, {"measurement": "viability, T/C", "setting": "second compound 1 µM, first compound 0.00949 µM", "result": 1.5, "unit": "%"}, {"measurement": "viability, T/C", "setting": "second compound 1 µM, first compound 0.03 µM", "result": 1.97, "unit": "%"}, {"measurement": "viability, T/C", "setting": "second compound 1 µM, first compound 0.0949 µM", "result": 1.83, "unit": "%"}, {"measurement": "viability, T/C", "setting": "second compound 1 µM, first compound 0.3 µM", "result": 2.32, "unit": "%"}, {"measurement": "viability, T/C", "setting": "second compound 1 µM, first compound 0.949 µM", "result": 2.43, "unit": "%"}, {"measurement": "viability, T/C", "setting": "second compound 1 µM, first compound 3 µM", "result": 2.17, "unit": "%"}, {"measurement": "viability, T/C", "setting": "second compound 3.16 µM, first compound 0.00949 µM", "result": 1.89, "unit": "%"}, {"measurement": "viability, T/C", "setting": "second compound 3.16 µM, first compound 0.03 µM", "result": 3.42, "unit": "%"}, {"measurement": "viability, T/C", "setting": "second compound 3.16 µM, first compound 0.0949 µM", "result": 3.73, "unit": "%"}, {"measurement": "viability, T/C", "setting": "second compound 3.16 µM, first compound 0.3 µM", "result": 5.05, "unit": "%"}, {"measurement": "viability, T/C", "setting": "second compound 3.16 µM, first compound 0.949 µM", "result": 3.43, "unit": "%"}, {"measurement": "viability, T/C", "setting": "second compound 3.16 µM, first compound 3 µM", "result": 3.12, "unit": "%"}, {"measurement": "viability, T/C", "setting": "second compound 10 µM, first compound 0.00949 µM", "result": 1.57, "unit": "%"}, {"measurement": "viability, T/C", "setting": "second compound 10 µM, first compound 0.03 µM", "result": 2.14, "unit": "%"}, {"measurement": "viability, T/C", "setting": "second compound 10 µM, first compound 0.0949 µM", "result": 2.32, "unit": "%"}, {"measurement": "viability, T/C", "setting": "second compound 10 µM, first compound 0.3 µM", "result": 2.15, "unit": "%"}, {"measurement": "viability, T/C", "setting": "second compound 10 µM, first compound 0.949 µM", "result": 1.97, "unit": "%"}, {"measurement": "viability, T/C", "setting": "second compound 10 µM, first compound 3 µM", "result": 1.44, "unit": "%"}]}, {"smiles": "CC(Nc1ccc2c(c1)OCCn1cc(N3C(=O)OCC3C(F)F)nc1-2)C(N)=O", "note": "(centres undefined) + CNC(=O)c1ccc(Nc2nc(OC3CCCC3)c3c(-c4ccc5nc(C)oc5c4)c[nH]c3n2)c(OC)c1", "values": [{"measurement": "IC50", "setting": "second compound 0.0316 µM", "result": "> 10000", "unit": "nM"}, {"measurement": "IC50", "setting": "second compound 0.1 µM", "result": "> 10000", "unit": "nM"}, {"measurement": "IC50", "setting": "second compound 0.316 µM", "result": "> 10000", "unit": "nM"}, {"measurement": "IC50", "setting": "second compound 1 µM", "result": 73.3, "unit": "nM"}, {"measurement": "IC50", "setting": "second compound 3.16 µM", "result": "< 31.6", "unit": "nM"}, {"measurement": "IC50", "setting": "second compound 10 µM", "result": "< 31.6", "unit": "nM"}, {"measurement": "viability, T/C", "setting": "second compound 0.0316 µM, first compound 0.0316 µM", "result": 105, "unit": "%"}, {"measurement": "viability, T/C", "setting": "second compound 0.0316 µM, first compound 0.1 µM", "result": 82.3, "unit": "%"}, {"measurement": "viability, T/C", "setting": "second compound 0.0316 µM, first compound 0.316 µM", "result": 83.9, "unit": "%"}, {"measurement": "viability, T/C", "setting": "second compound 0.0316 µM, first compound 1 µM", "result": 85.5, "unit": "%"}, {"measurement": "viability, T/C", "setting": "second compound 0.0316 µM, first compound 3.16 µM", "result": 65.4, "unit": "%"}, {"measurement": "viability, T/C", "setting": "second compound 0.0316 µM, first compound 10 µM", "result": 67.3, "unit": "%"}, {"measurement": "viability, T/C", "setting": "second compound 0.1 µM, first compound 0.0316 µM", "result": 88, "unit": "%"}, {"measurement": "viability, T/C", "setting": "second compound 0.1 µM, first compound 0.1 µM", "result": 78.4, "unit": "%"}, {"measurement": "viability, T/C", "setting": "second compound 0.1 µM, first compound 0.316 µM", "result": 66.1, "unit": "%"}, {"measurement": "viability, T/C", "setting": "second compound 0.1 µM, first compound 1 µM", "result": 70.3, "unit": "%"}, {"measurement": "viability, T/C", "setting": "second compound 0.1 µM, first compound 3.16 µM", "result": 55.7, "unit": "%"}, {"measurement": "viability, T/C", "setting": "second compound 0.1 µM, first compound 10 µM", "result": 58.2, "unit": "%"}, {"measurement": "viability, T/C", "setting": "second compound 0.316 µM, first compound 0.0316 µM", "result": 92.5, "unit": "%"}, {"measurement": "viability, T/C", "setting": "second compound 0.316 µM, first compound 0.1 µM", "result": 64.3, "unit": "%"}, {"measurement": "viability, T/C", "setting": "second compound 0.316 µM, first compound 0.316 µM", "result": 65.5, "unit": "%"}, {"measurement": "viability, T/C", "setting": "second compound 0.316 µM, first compound 1 µM", "result": 52.4, "unit": "%"}, {"measurement": "viability, T/C", "setting": "second compound 0.316 µM, first compound 3.16 µM", "result": 56.9, "unit": "%"}, {"measurement": "viability, T/C", "setting": "second compound 0.316 µM, first compound 10 µM", "result": 49.7, "unit": "%"}, {"measurement": "viability, T/C", "setting": "second compound 1 µM, first compound 0.0316 µM", "result": 60.6, "unit": "%"}, {"measurement": "viability, T/C", "setting": "second compound 1 µM, first compound 0.1 µM", "result": 45.1, "unit": "%"}, {"measurement": "viability, T/C", "setting": "second compound 1 µM, first compound 0.316 µM", "result": 46.9, "unit": "%"}, {"measurement": "viability, T/C", "setting": "second compound 1 µM, first compound 1 µM", "result": 47.7, "unit": "%"}, {"measurement": "viability, T/C", "setting": "second compound 1 µM, first compound 3.16 µM", "result": 39.7, "unit": "%"}, {"measurement": "viability, T/C", "setting": "second compound 1 µM, first compound 10 µM", "result": 41.9, "unit": "%"}, {"measurement": "viability, T/C", "setting": "second compound 3.16 µM, first compound 0.0316 µM", "result": 45, "unit": "%"}, {"measurement": "viability, T/C", "setting": "second compound 3.16 µM, first compound 0.1 µM", "result": 49.8, "unit": "%"}, {"measurement": "viability, T/C", "setting": "second compound 3.16 µM, first compound 0.316 µM", "result": 32, "unit": "%"}, {"measurement": "viability, T/C", "setting": "second compound 3.16 µM, first compound 1 µM", "result": 33.4, "unit": "%"}, {"measurement": "viability, T/C", "setting": "second compound 3.16 µM, first compound 3.16 µM", "result": 35.4, "unit": "%"}, {"measurement": "viability, T/C", "setting": "second compound 3.16 µM, first compound 10 µM", "result": 25.9, "unit": "%"}, {"measurement": "viability, T/C", "setting": "second compound 10 µM, first compound 0.0316 µM", "result": 38.6, "unit": "%"}, {"measurement": "viability, T/C", "setting": "second compound 10 µM, first compound 0.1 µM", "result": 46.2, "unit": "%"}, {"measurement": "viability, T/C", "setting": "second compound 10 µM, first compound 0.316 µM", "result": 37.7, "unit": "%"}, {"measurement": "viability, T/C", "setting": "second compound 10 µM, first compound 1 µM", "result": 27.8, "unit": "%"}, {"measurement": "viability, T/C", "setting": "second compound 10 µM, first compound 3.16 µM", "result": 32.9, "unit": "%"}, {"measurement": "viability, T/C", "setting": "second compound 10 µM, first compound 10 µM", "result": 24.9, "unit": "%"}]}]}
